These results are taken from ChEMBL document CHEMBL3045943, “Novel N-aryl(alkaryl)-2-[(3-R-2-oxo-2H-[1,2,4]triazino[2,3-c]quinazoline-6-yl)thio]acetamides: synthesis, cytotoxicity, anticancer activity, COMPARE analysis and docking” (2013).

For orientation: GI50 means the concentration giving 50% growth inhibition. Low readings indicate more potent growth inhibition, high ones less potent growth inhibition.

What all share (assay type): functional
The test system of one test is SF-539. The test is described as follows: Cytotoxicity against Homo sapiens (human) SF539 cells after 48 hr by SRB assay. As to conditions: SF-539, 48 h.
The test system of a further test is MCF7. The test is described as follows: Cytotoxicity against Homo sapiens (human) MCF7 cells assessed as cell growth at 10 uM after 48 hr by SRB assay relative to control. The conditions noted are these: MCF7, 48 h, read-out: Activity.
The subject of the next test is SK-MEL-5. The test can be described thus: Cytotoxicity against Homo sapiens (human) SK-MEL-5 cells assessed as cell growth at 10 uM after 48 hr by SRB assay relative to control. As to conditions: SK-MEL-5, 48 h, read-out: Activity.
The next test relates to HOP-62. The test can be described thus: Cytotoxicity against Homo sapiens (human) HOP62 cells assessed as cell growth at 10 uM after 48 hr by SRB assay relative to control. As to conditions: HOP-62, 48 h, read-out: Activity. (In general: In SRB staining, fixed cells bind dye roughly in proportion to their protein.)
Another test concerns Malme-3M. The test can be described thus: Cytotoxicity against Homo sapiens (human) MALME-3M cells after 48 hr by SRB assay.
The next test concerns DU-145. The test is described as follows: Cytotoxicity against Homo sapiens (human) DU145 cells after 48 hr by SRB assay. The conditions noted are these: DU-145, 48 h.
The subject of a further test is U-251. The test can be described thus: Cytotoxicity against Homo sapiens (human) U251 cells assessed as cell growth at 10 uM after 48 hr by SRB assay relative to control. As to conditions: U-251, 48 h, read-out: Activity.
[1] abbreviates: read-out: pLC50 (the source's name) (converted).

Each structure is given as a SMILES string. Bounds are passed on as bounds.

The compound `COc1ccccc1CNC(=O)CSc1nc2ccccc2c2nc(=O)c(-c3ccccc3)nn12` showed a concentration for 50% growth inhibition (GI50) with SF-539 of 1.82 µM. For the same compound, in the test with SF-539 (setting [1]), the CC50 is over 100 µM. In the test on SF-539 (read-out: pTGI), the TGI is over 100 µM.

Take `COc1ccc(-c2nn3c(SCC(=O)Nc4ccccc4Cl)nc4ccccc4c3nc2=O)cc1`: the growth at 10 µM was 32.8% in the test with MCF7, 41.4% in the test on SK-MEL-5, 30.3% in the test with HOP-62 and -22.6% in the test with U-251. The GI50 is 1.86 µM with Malme-3M and 1.38 µM in the test on DU-145. The CC50 with Malme-3M (setting [1]) and in the test on DU-145 (setting [1]) was over 100 µM in each case. Also, the values for the TGI with Malme-3M (read-out: pTGI (converted)) and with DU-145 (read-out: pTGI) were 7.94 µM and over 100 µM, respectively.
